From patent US20230365537A1, “POLO LIKE KINASE 4 INHIBITORS” (ORIC Pharmaceuticals, Inc., priority 2021, published 2023) come the findings set out here.

The subject of assay [1] is CHP-134 cells. Nature of the assay: CHP134 CellTiter-Glo (CTG) Assay. The following applies: Homo sapiens, CHP-134, 120 h, 5 days, viable cells by CellTiter-Glo. The format is cell-based. In short, it runs like this:
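Nine-point 1:3 dilution series, diluted into growth media, added in quadruplicate to CHP-134 cells plated 16 h earlier at 200 cells/well.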

Assay [2] deals with human recombinant PLK4 (Homo sapiens (Human), UniProt O00444). Nature of the assay: PLK4 Biochemical Assay (ADP-Glo). Particulars: 0.5 nM PLK4, 8.0 µM ATP, 4.7 µM MBP, 6 hours at RT. In a few lines:
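Luminescent ADP-Glo detection quantified ADP production, with ATP depletion for 40 min and detection for 30 min at room temperature. Compound and PLK4 (1.0 nM stock addition) were preincubated 15 min in HEPES pH 7.5 buffer containing MgCl2, EGTA, DTT, Brij-35 and BSA. IC50 values were obtained by four-parameter nonlinear regression.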

Assay [3] has as its target human recombinant Aurora B (Homo sapiens (Human), UniProt Q96GD4). Nature of the assay: Aurora B Kinase Biochemical Assay (ADP-Glo). The following applies: ratio of Aurora B IC50 to PLK4 IC50 (selectivity). In short, it runs like this: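 IC50 derived by four-parameter nonlinear fit of ADP-Glo luminescence (ADP produced). Compound was preincubated 15 min at RT with 20 nM recombinant human Aurora B, in 50 mM HEPES pH 7.5, 10 mM MgCl2, 1 mM EGTA, 1 mM DTT, 0.01% Brij-35/BSA.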

The target in assay [4] is human recombinant Aurora A (Homo sapiens (Human), UniProt O14965). Nature of the assay: Aurora A Kinase Biochemical Assay (ADP-Glo). The following applies: ratio of Aurora A IC50 to PLK4 IC50 (selectivity).

SMILES strings stand for the structures.

Sequence of human recombinant Aurora A (O14965 whole entry): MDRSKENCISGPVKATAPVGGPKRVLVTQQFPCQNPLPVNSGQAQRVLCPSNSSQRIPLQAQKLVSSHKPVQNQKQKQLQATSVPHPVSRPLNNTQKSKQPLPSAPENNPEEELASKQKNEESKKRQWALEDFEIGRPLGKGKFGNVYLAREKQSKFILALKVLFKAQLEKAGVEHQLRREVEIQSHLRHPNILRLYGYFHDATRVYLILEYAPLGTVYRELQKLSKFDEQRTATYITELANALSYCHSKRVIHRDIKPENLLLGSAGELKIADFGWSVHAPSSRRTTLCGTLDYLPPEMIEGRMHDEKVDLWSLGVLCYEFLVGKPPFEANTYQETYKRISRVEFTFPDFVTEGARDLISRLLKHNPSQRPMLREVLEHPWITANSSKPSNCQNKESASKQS
Sequence of human recombinant PLK4 (O00444 whole entry): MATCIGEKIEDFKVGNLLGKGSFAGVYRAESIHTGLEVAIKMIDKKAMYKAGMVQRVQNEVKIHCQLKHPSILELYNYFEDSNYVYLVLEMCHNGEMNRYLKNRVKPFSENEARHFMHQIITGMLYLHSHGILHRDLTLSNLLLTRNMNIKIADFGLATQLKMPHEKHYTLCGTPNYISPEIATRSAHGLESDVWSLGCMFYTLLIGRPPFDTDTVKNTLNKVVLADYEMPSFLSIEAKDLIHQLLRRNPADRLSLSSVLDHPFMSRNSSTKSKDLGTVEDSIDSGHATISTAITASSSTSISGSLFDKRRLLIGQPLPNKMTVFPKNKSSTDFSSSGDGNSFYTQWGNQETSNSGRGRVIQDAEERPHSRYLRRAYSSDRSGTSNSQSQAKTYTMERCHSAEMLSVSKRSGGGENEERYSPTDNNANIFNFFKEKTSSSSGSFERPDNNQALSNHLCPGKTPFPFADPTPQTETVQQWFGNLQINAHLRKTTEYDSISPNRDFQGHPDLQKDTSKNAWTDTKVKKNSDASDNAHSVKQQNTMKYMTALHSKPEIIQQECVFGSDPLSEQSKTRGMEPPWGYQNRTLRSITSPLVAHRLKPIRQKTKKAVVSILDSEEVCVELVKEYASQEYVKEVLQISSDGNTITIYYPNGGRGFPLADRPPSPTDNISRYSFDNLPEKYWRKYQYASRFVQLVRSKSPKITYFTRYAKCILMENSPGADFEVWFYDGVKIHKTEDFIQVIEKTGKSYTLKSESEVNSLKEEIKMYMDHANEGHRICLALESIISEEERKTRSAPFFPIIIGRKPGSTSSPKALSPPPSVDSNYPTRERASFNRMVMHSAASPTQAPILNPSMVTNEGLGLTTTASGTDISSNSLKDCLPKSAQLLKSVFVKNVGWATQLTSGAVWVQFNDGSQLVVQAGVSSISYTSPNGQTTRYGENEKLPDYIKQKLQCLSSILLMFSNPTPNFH
Sequence of human recombinant Aurora B (Q96GD4 whole entry): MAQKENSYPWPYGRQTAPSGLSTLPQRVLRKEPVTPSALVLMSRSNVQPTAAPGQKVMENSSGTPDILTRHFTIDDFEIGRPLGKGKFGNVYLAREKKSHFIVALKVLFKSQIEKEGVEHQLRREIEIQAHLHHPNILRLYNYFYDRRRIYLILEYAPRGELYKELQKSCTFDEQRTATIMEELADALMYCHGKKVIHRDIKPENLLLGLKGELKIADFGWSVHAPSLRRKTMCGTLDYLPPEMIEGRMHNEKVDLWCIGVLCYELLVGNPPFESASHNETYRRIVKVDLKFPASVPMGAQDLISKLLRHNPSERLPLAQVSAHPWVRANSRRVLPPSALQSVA

For `CCOc1cc(S(C)(=O)=O)cnc1Nc1n[nH]c2cc([C@@H]3C[C@@]34C(=O)Nc3ccc(Cl)cc34)ccc12` [Example 276, (1R,2S)-5′-chloro-2-(3-{[3-ethoxy-5-(methanesulfonyl)pyridin-2-yl]amino}-1H-indazol-6-yl)spiro[cyclopropane-1,3′-indol]-2′(1′H)-one], the IC50 came out at 4080 nM in assay [1] and 2.61 nM in assay [2]. Further, the “[Aurora B IC50 (nM)]/[PLK4 IC50 (nM)]” value in assay [3] stood at 2173.2976. Moreover, the “[Aurora A IC50 (nM)]/[PLK4 IC50 (nM)]” value in assay [4] is 377.9648.
